Measured values from US11440913B2, “Aminoimidazopyridazines as kinase inhibitors” (BRISTOL-MYERS SQUIBB COMPANY, priority 2017, dated 2022).
Counter-ions that a name gives are not always drawn. Like-named read-outs stand apart in the source and are kept apart here.

How the values were obtained:
[1] = molecular target: His-GST-TVMV-hRIPK1(1-324) (Homo sapiens (Human), UniProt Q13546); assay: RIPK1 HTRF Binding Assay; conditions: HTRF binding, 1 h at rt; read-out: RIPK1 (IC50)
Outline: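 HTRF probe-displacement binding: 1 nM His-GST-TVMV-hRIPK1(1-324) (baculovirus construct), 90.6 nM probe, 0.2 nM anti-GST-Tb in 20 mM HEPES, 10 mM MgCl2, 0.015% Brij-35, 4 mM DTT, 0.05 mg/mL BSA. Incubated 1 h at rt; FRET 520/495 nm ratio, inhibition relative to DMSO-only wells.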

[2] = system: MLKL phosphorylation in HT29-L23 human colorectal adenocarcinoma cells; assay: MLKL Phosphorylation High-Content Assay; format: cell-based; conditions: 6 h, necroptosis induced with TNFα, SMAC mimetic and Z-VAD, read-out: pMLKL (IC50)
Outline: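 HT29-L23 cells pretreated 30 min at 37 °C with compound (6.25 to 0.106 μM final), then necroptosis induced with TNFα 35 ng/mL, SMAC mimetic 700 nM and Z-VAD 140 nM for 6 h. Fixed cells immunostained for MLKL pS358 and imaged; IC50 and Ymax from 4-parameter logistic fit.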

Chain of His-GST-TVMV-hRIPK1(1-324) (Q13546 1-324): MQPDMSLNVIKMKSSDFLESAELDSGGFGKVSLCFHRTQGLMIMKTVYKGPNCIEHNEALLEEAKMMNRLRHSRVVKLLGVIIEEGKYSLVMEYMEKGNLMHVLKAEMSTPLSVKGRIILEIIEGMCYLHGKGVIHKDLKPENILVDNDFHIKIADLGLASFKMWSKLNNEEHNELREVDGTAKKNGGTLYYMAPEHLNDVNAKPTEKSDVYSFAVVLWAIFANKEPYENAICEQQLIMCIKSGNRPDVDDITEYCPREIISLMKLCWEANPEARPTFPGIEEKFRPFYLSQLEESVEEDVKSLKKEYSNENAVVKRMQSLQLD

COc1ncc(-c2ccc3nc(NC(=O)C(C)C)cn3n2)cc1C(=O)NCc1cc(OC(F)(F)F)ccc1F [Example 11, N-{[2-fluoro-5-(trifluoromethoxy)phenyl]methyl}-2-methoxy-5-[2-(2-methylpropanamido)imidazo[1,2-b]pyridazin-6-yl]pyridine-3-carboxamide]
IC50 [1]: 20 nM | IC50 ([2]; Homo sapiens): 89 nM

COc1ncc(-c2ccc3nc(NC(C)=O)c(C)n3n2)cc1C(=O)NCc1ccc(F)c(OC(F)(F)F)c1 [Example 255, 5-{2-acetamido-3-methylimidazo[1,2-b]pyridazin-6-yl}-N-{[4-fluoro-3-(trifluoromethoxy)phenyl]methyl}-2-methoxypyridine-3-carboxamide]
IC50 [1]: 87 nM | IC50 ([2]; Homo sapiens): 263 nM

CC(=O)Nc1cn2nc(-c3cc(C(=O)NCc4cc(OC(F)(F)F)ccc4F)ccc3F)ccc2n1 [Example 432, 3-{2-acetamidoimidazo [1,2-b]pyridazin-6-yl}-4-fluoro-N-{[2-fluoro-5-(trifluoromethoxy)phenyl]methyl} benzamide]
IC50 [1]: 36 nM | IC50 ([2]; Homo sapiens): 149 nM

CC(=O)Nc1cn2nc(-c3cnc(C)c(C(=O)NCc4cc(F)ccc4OCC(F)(F)F)c3)ccc2n1 [Example 195, 5-{2-acetamidoimidazo[1,2-b]pyridazin-6-yl}-N-{[5-fluoro-2-(2,2,2-trifluoroethoxy)phenyl]methyl}-2-methylpyridine-3-carboxamide]
IC50 [1]: 43 nM | IC50 ([2]; Homo sapiens): 188 nM

COc1ncc(-c2ccc3nc(NC(C)=O)cn3n2)cc1C(=O)NCc1cc(F)cc(F)c1OC1COC1 [Example 115, N-{[3,5-difluoro-2-(oxetan-3-yloxy)phenyl]methyl}-5-{2-acetamidoimidazo[1,2-b]pyridazin-6-yl}-2-methoxypyridine-3-carboxamide]
IC50 [1]: 12 nM | IC50 ([2]; Homo sapiens): 65 nM

CC(=O)Nc1cn2nc(-c3cc(C(=O)NCc4cc(F)ccc4OCC(F)(F)F)c(C)nc3C)ccc2n1 [Example 72, 5-{2-acetamidoimidazo[1,2-b]pyridazin-6-yl}-N-{[5-fluoro-2-(2,2,2-trifluoroethoxy)phenyl]methyl}-2,6-dimethylpyridine-3-carboxamide, TFA]
IC50 [1]: 17 nM | IC50 ([2]; Homo sapiens): 30 nM

COc1ncc(-c2ccc3nc(NC(C)=O)c(C)n3n2)cc1C(=O)NCc1cc(C(F)(F)F)ccc1F [Example 254, 5-{2-acetamido-3-methylimidazo[1,2-b]pyridazin-6-yl}-N-{[2-fluoro-5-(trifluoromethyl)phenyl]methyl}-2-methoxypyridine-3-carboxamide]
IC50 [1]: 101 nM | IC50 ([2]; Homo sapiens): 66 nM

COc1ncc(-c2ccc3nc(NC(C)=O)cn3n2)cc1C(=O)NCc1cc(F)cc(F)c1O[C@H]1CCOC1 [Example 98, N-({3,5-difluoro-2-[(3S)-oxolan-3-yloxy]phenyl}methyl)-5-{2-acetamidoimidazo[1,2-b]pyridazin-6-yl}-2-methoxypyridine-3-carboxamide]
IC50 [1]: 2 nM | IC50 ([2]; Homo sapiens): 39 nM

CC(=O)Nc1cn2nc(-c3cnc(C(F)(F)F)c(C(=O)NCc4cc(C(F)(F)F)ccc4F)c3)ccc2n1 [Example 30, 5-{2-acetamidoimidazo[1,2-b]pyridazin-6-yl}-N-{[2-fluoro-5-(trifluoromethyl)phenyl]methyl}-2-(trifluoromethyl)pyridine-3-carboxamide]
IC50 [1]: 199 nM | IC50 ([2]; Homo sapiens): 341 nM

CC(=O)Nc1cn2nc(-c3cc(C(=O)NCc4c(F)cccc4OCC(F)(F)F)c(C)nc3C)ccc2n1 [Example 325, 5-{2-acetamidoimidazo[1,2-b]pyridazin-6-yl}-N-{[2-fluoro-6-(2,2,2-trifluoroethoxy)phenyl]methyl}-2,6-dimethylpyridine-3-carboxamide]
IC50 [1]: 9 nM | IC50 ([2]; Homo sapiens): 17 nM

COc1nc(C)c(-c2ccc3nc(NC(C)=O)cn3n2)cc1C(=O)NCc1ccccc1OC1CCOC1 (stereo not shown) [Example 307, 5-{2-acetamidoimidazo[1,2-b]pyridazin-6-yl}-2-methoxy-6-methyl-N-{[2-(oxolan-3-yloxy)phenyl]methyl}pyridine-3-carboxamide]
IC50 [1]: 11 nM | IC50 [2]: 5 nM

CC(=O)Nc1cn2nc(-c3cc(F)c(C)c(C(=O)N[C@@H](C)c4cc(OC(F)(F)F)ccc4F)c3)ccc2n1 [Example 360, 5-{2-acetamidoimidazo [1,2-b]pyridazin-6-yl}-3-fluoro-N-[(1S)-1-[2-fluoro-5-(trifluoromethoxy)phenyl]ethyl]-2-methylbenzamide]
IC50 [1]: 6 nM | IC50 ([2]; Homo sapiens): 9 nM

CC(=O)Nc1cn2nc(-c3cc(C(=O)NCc4cc(F)ccc4OC(F)(F)F)cnc3Cl)ccc2n1 [Example 322, 6-chloro-5-{2-acetamidoimidazo[1,2-b]pyridazin-6-yl}-N-{[5-fluoro-2-(trifluoromethoxy)phenyl]methyl}pyridine-3-carboxamide]
IC50 [1]: 8 nM | IC50 [2]: 51 nM

CC(=O)Nc1cn2nc(-c3cnc(C)c(CNC(=O)c4cc(OC(F)(F)F)ccc4F)c3)ccc2n1 [Example 1, N-[(5-{2-acetamidoimidazo[1,2-b]pyridazin-6-yl}-2-methylpyridin-3-yl)methyl]-2-fluoro-5-(trifluoromethoxy)benzamide]
IC50 [1]: 101 nM | IC50 ([2]; Homo sapiens): 240 nM

CC(=O)Nc1cn2nc(-c3cnc(Cl)c(C(=O)NC(C)c4cc(C(F)(F)F)ccc4F)c3)ccc2n1 (stereo not shown) [Example 269, 2-chloro-5-{2-acetamidoimidazo[1,2-b]pyridazin-6-yl}-N-{1-[2-fluoro-5-(trifluoromethyl)phenyl]ethyl}pyridine-3-carboxamide]
IC50 [1]: 55 nM | IC50 ([2]; Homo sapiens): 209 nM

COc1ncc(-c2ccc3nc(NC(C)=O)cn3n2)cc1C(=O)NCc1cccc(F)c1OC(C)C1CC1 (stereo not shown) [Example 135, N-{[2-(1-cyclopropylethoxy)-3-fluorophenyl]methyl}-5-{2-acetamidoimidazo[1,2-b]pyridazin-6-yl}-2-methoxypyridine-3-carboxamide]
IC50 [1]: 3 nM | IC50 [2]: 7 nM

[2H]C([2H])([2H])Oc1ncc(-c2ccc3nc(NC(C)=O)cn3n2)cc1C(=O)NC([2H])([2H])c1cc(F)cc(F)c1OC1CCOCC1 [Example 46, N-{[3,5-difluoro-2-(oxan-4-yloxy)phenyl](deutero)methyl}-5-{2-acetamidoimidazo[1,2-b]pyridazin-6-yl}-2-(D3)methoxypyridine-3-carboxamide]
IC50 [1]: 2 nM | IC50 ([2]; Homo sapiens): 1 nM

COc1ncc(-c2ccc3nc(NC(C)=O)cn3n2)cc1C(=O)NCc1cc(F)cc(OC(F)(F)F)c1 [Example 138, 5-{2-acetamidoimidazo[1,2-b]pyridazin-6-yl}-N-{[3-fluoro-5-(trifluoromethoxy)phenyl]methyl}-2-methoxypyridine-3-carboxamide]
IC50 [1]: 13 nM | IC50 ([2]; Homo sapiens): 72 nM

CC(=O)Nc1cn2nc(-c3cnc(C)c(C(=O)NC(C)c4ccccc4OC(F)(F)F)c3)ccc2n1 (stereo not shown) [Example 202, 5-{2-acetamidoimidazo[1,2-b]pyridazin-6-yl}-2-methyl-N-{1-[2-(trifluoromethoxy)phenyl]ethyl}pyridine-3-carboxamide]
IC50 [1]: 32 nM | IC50 [2]: 34 nM

CC(=O)Nc1cn2nc(-c3ccc(F)c(C(=O)N[C@@H](C)c4cc(OC(F)(F)F)ccc4F)c3F)ccc2n1 [Example 379, 3-{2-acetamidoimidazo [1,2-b]pyridazin-6-yl}-2,6-difluoro-N-[(1S)-1-[2-fluoro-5-(trifluoromethoxy)phenyl]ethyl] benzamide]
IC50 [1]: 1 nM | IC50 ([2]; Homo sapiens): 5 nM

CC(=O)Nc1cn2nc(-c3cnc(C)c(C(=O)NCc4cc(C(F)(F)F)ccn4)c3)ccc2n1 [Example 191, 5-{2-acetamidoimidazo[1,2-b]pyridazin-6-yl}-2-methyl-N-{[4-(trifluoromethyl)pyridin-2-yl]methyl}pyridine-3-carboxamide]
IC50 [1]: 938 nM | IC50 ([2]; Homo sapiens): 86 nM

COc1nc(C)c(-c2ccc3nc(NC(C)=O)cn3n2)cc1C(=O)NCc1cc(F)ccc1OCC1CCCC1 [Example 315, N-{[2-(cyclopentylmethoxy)-5-fluorophenyl]methyl}-5-{2-acetamidoimidazo[1,2-b]pyridazin-6-yl}-2-methoxy-6-methylpyridine-3-carboxamide]
IC50 [1]: 5 nM | IC50 ([2]; Homo sapiens): 9 nM

CC(=O)Nc1cn2nc(-c3cc(C(=O)NCc4cccnc4OCC4CCCC4)c(C)nc3C)ccc2n1 [Example 84, N-{[2-(cyclopentylmethoxy)pyridin-3-yl]methyl}-5-{2-acetamidoimidazo[1,2-b]pyridazin-6-yl}-2,6-dimethylpyridine-3-carboxamide]
IC50 [1]: 19 nM | IC50 ([2]; Homo sapiens): 26 nM

COc1ncc(-c2ccc3nc(NC(C)=O)cn3n2)cc1C(=O)N[C@H](C)c1cc(OC(F)(F)F)ccc1F [Example 109, 5-{2-acetamidoimidazo[1,2-b]pyridazin-6-yl}-N-[(1R)-1-[2-fluoro-5-(trifluoromethoxy)phenyl](2,2,2-deutero)ethyl]-2-methoxypyridine-3-carboxamide]
IC50 [1]: 32 nM | IC50 [2]: 85 nM

COc1ccc(F)c(CNC(=O)c2cc(-c3ccc4nc(NC(C)=O)cn4n3)c(C)nc2C)c1 [Example 37, 5-(2-acetamidoimidazo[1,2-b]pyridazin-6-yl)-N-(2-fluoro-5-methoxybenzyl)-2,6-dimethylnicotinamide]
IC50 [1]: 67 nM | IC50 ([2]; Homo sapiens): 208 nM

COc1nc(C)c(-c2ccc3nc(NC(C)=O)cn3n2)cc1C(=O)NCc1ccc(F)cc1OCC1CC1 [Example 317, N-{[2-(cyclopropylmethoxy)-4-fluorophenyl]methyl}-5-{2-acetamidoimidazo[1,2-b]pyridazin-6-yl}-2-methoxy-6-methylpyridine-3-carboxamide]
IC50 [1]: 3 nM | IC50 ([2]; Homo sapiens): 19 nM
